Tests used:
L428, MDR + HL = assay: In vitro growth inhibition (CellTiter-Glo, 96 h), L428; assay type: cell-based; conditions: cAC10 (anti-CD30) ADCs, average DAR 4
Procedure: (§1) Cell culture of cell lines as listed in Table 2-4 in log-phase growth were seeded in 96-well plates and grown for 24 h in cell culture media containing 150 μL RPMI 1640 supplemented with 20% FBS (see Mol. Cancer Ther., 2016, 15(5), 938-945 and Mol. Cancer Ther., 2018, 17(8), 1752-1760). Serial dilutions of free drugs or antibody-drug conjugates (final concentration between 0.004 nM and 1 μM) in cell culture media were prepared at 4× working concentrations; 50 μL of each dilution was added to the 96-well plates. Following addition of the drug or ADC, the cells were incubated with test articles (free drugs or ADCs) for 4 d at 37° C. After 96 h, growth inhibition was assessed by CellTiter-Glo® (Promega, Madison, WI) and luminescence was measured on a plate reader (brand, model).
(§2) Anti-CD30 ADCs comprising cAC10 antibody conjugated to drug-linkers 24, 32, 29, 18, 14, and 48 with an average DAR of 4 were prepared for evaluation on a CD30-expressing lymphoma cell line panel. […] Anti-CD30 conjugates bearing the PNU linkers 24, 32, 29, 18, and 14 were active on L540cy, DEL, and Karpas299 lymphoma cell lines, and conjugate 48 was active on L540cy and DEL cell lines, with IC50s ranging from 0.2-4 ng/mL.

Ramos, CD30 − NHL = assay: In vitro growth inhibition (CellTiter-Glo, 96 h), Ramos; assay type: cell-based; conditions: cAC10 (anti-CD30) ADCs, average DAR 4
Procedure: as §1, §2

L540cy, HL = assay: In vitro growth inhibition (CellTiter-Glo, 96 h), L540cy; assay type: cell-based
Procedure: as §1
(§3) Cells were treated for 96 hours with anthracycline analogues listed in Table 2, and then assessed for viability as described in the procedures as described above. […] ND denotes value not determined with that assay for the specified compound.
(§4) ADCs were prepared by full reduction of interchain disulfides to reveal 8-conjugatable cysteines/antibody, and subsequent alkylation with the maleimide-containing drug-linkers (Compounds 14, 18, 21, 24, 29, 32, 33, 34, and 48) according to the procedures described in Mol. Cancer Ther. 2018, 17(8). 1752-1760. Conjugates of antibody cOKT9 were prepared with anthracycline linkers. Cancer cell lines were treated with cOKT9 ADCs (average DAR of 8:1) for 96 h and then assessed for viability. […] ND denotes value not determined with that assay for the specified compound.
as §2

BxPC3, PancCa = assay: In vitro growth inhibition (CellTiter-Glo, 96 h), BxPC3; assay type: cell-based; conditions: cOKT9 ADCs, average DAR 8, 96 h
Procedure: as §1, §3, §4

[1] = test system: DEL/BVR anaplastic large cell lymphoma xenograft; assay: DEL/BVR MDR+, CD30+ anaplastic large cell lymphoma xenograft model; assay type: in vivo, SCID mice; conditions: cAC10 S239C ADCs, average DAR 2; 3 mg/kg single dose i.p.
Procedure: (§5) All experiments were conducted in concordance with the Animal Care and Use Committee in a facility fully accredited by the Association for Assessment and Accreditation of Laboratory Animal Care. Efficacy experiments were conducted using the L540cy Hodgkin's lymphoma and DEL/BVR anaplastic large cell lymphoma xenograft models (Mol. Cancer Ther., 2018, 17(8), 1752-1760). Tumor cells, as a cell suspension, were implanted subcutaneously in immune-compromised SCID female mice. Upon tumor engraftment, the mice were randomized into study groups when the average tumor volume reached about 100 mm^3. The ADCs were dosed once via intraperitoneal injection. Tumor volume as a function of time was determined using the formula (L×W2)/2. Animals were euthanized when tumor volumes reached 1000 mm^3.
Anti-CD30 conjugates bearing PNU drug-linkers 29, 18, and 14 were further evaluated in a DEL/BVR MDR+, CD30+ anaplastic large cell lymphoma xenograft model. cAC10 antibody with the S239C mutation is conjugated to the PNU drug linkers with an average DAR of 2 to minimize the effects of ADC pharmacokinetics. Tumor-bearing mice were administered a 3 mg/kg single dose intraperitoneally (i.p.) of test article once the average tumor volume reached 100 mm^3 (typically on day 4). […] However, the conjugate comprising PNU linker 29 appeared to be non-efficacious, and only provided minimal tumor growth delay (FIG. 2). Untreated mice were used as negative controls.

786-O, MDR + RCC = assay: In vitro growth inhibition (CellTiter-Glo, 96 h), 786-O; assay type: cell-based; conditions: cOKT9 ADCs, average DAR 8, 96 h
Procedure: as §1, §3, §4

Karpas299, ALCL = assay: In vitro growth inhibition (CellTiter-Glo, 96 h), Karpas299; assay type: cell-based; conditions: cAC10 (anti-CD30) ADCs, average DAR 4
Procedure: as §1, §2

[2] = test system: L540cy Hodgkin's lymphoma xenograft; assay: L540cy CD30+ Hodgkin lymphoma xenograft model; assay type: in vivo, SCID mice; conditions: cAC10 S239C ADCs, average DAR 2; single dose i.p. at about 100 mm^3
Procedure: as §5
Anti-CD30 conjugates bearing PNU drug-linkers 29, 18, and 14 were evaluated in a CD30-expressing xenograft model as described above. cAC10 antibody with the S239C mutation is conjugated to the PNU drug linkers with an average DAR of 2 to minimize the effects of ADC pharmacokinetics. Tumor-bearing mice were administered a single dose intraperitoneally (i.p.) of test article once the average tumor volume reached 100 mm^3 (typically on day 8). Untreated mice were used as negative controls.

HL60/RV, MDR + AML = assay: In vitro growth inhibition (CellTiter-Glo, 96 h), HL60/RV; assay type: cell-based; conditions: cOKT9 ADCs, average DAR 8, 96 h
Procedure: as §1, §3, §4

[3] = test system: L540cy, 786-O, BxPC3, HL60, HL60/RV; conditions: for IC50s of cOKT9 conjugates: 24 h
DEL, ALCL = assay: In vitro growth inhibition (CellTiter-Glo, 96 h), DEL; assay type: cell-based; conditions: cAC10 (anti-CD30) ADCs, average DAR 4
Procedure: as §1, §2

HL60, AML = assay: In vitro growth inhibition (CellTiter-Glo, 96 h), HL60; assay type: cell-based; conditions: cOKT9 ADCs, average DAR 8, 96 h
Procedure: as §1, §3, §4

[4] = test system: CD30-expressing lymphoma cell line panel; assay type: cell-based; conditions: cAC10 ADC DAR 4
Procedure: as §1, §2

[5] = cAC10 (anti-CD30) ADCs, average DAR 4
[6] = cOKT9 ADCs, average DAR 8, 96 h

Row | Structure (SMILES) | IC50 (ng/mL) L428, MDR + HL (L428, MDR + HL) | IC50 (ng/mL) Ramos, CD30 − NHL (Ramos, CD30 − NHL) | IC50 (ng/mL) L540cy, HL (L540cy, HL; [5]) | IC50 (ng/mL) L540cy, HL (L540cy, HL; [6]) | IC50 (ng/mL) BxPC3, PancCa (BxPC3, PancCa) | antitumor activity, DEL/BVR xenograft (FIG. 2) [1] | IC50 (ng/mL) 786-O, MDR + RCC (786-O, MDR + RCC) | IC50 (ng/mL) Karpas299, ALCL (Karpas299, ALCL) | antitumor activity, L540cy xenograft (FIG. 1) [2] | IC50 (ng/mL) HL60/RV, MDR + AML (HL60/RV, MDR + AML) | IC50s of cOKT9 conjugates [3] [ng/mL] | IC50 (ng/mL) DEL, ALCL (DEL, ALCL) | IC50 (ng/mL) HL60, AML (HL60, AML) | IC50 values of anti-CD30 conjugate, highest dose tested [4] | activity of cOKT9 conjugates across the panel of cancer cell lines ([3]; cOKT9 ADCs DAR 8, result in words)
1 | COc1cccc2c1C(=O)c1c(O)c3c(c(O)c1C2=O)C[C@@](O)(C(=O)NCCNC(=O)CCN1C(=O)C=CC1=O)C[C@@H]3O[C@H]1C[C@H]2[C@H](O[C@@H]3[C@@H](OC)OCCN32)[C@H](C)O1 [Compound 14, (2S,4S)—N-(2-(3-(2,5-dioxo-2,5-dihydro-1H-pyrrol-1-yl)propanamido)ethyl)-2,5,12-trihydroxy-7-methoxy-4-(((1S,3R,4aS,9S,9aR,10aS)-9-methoxy-1-methyloctahydro-1H-pyrano[4′,3′:4,5]oxazolo[2,3-c][1,4]oxazin-3-yl)oxy)-6,11-dioxo-1,2,3,4,6,11-hexahydrotetracene-2-carboxamide] | B (1 ng/mL≤IC50<10 ng/mL) | E (IC50≥500 ng/mL) | B (1 ng/mL≤IC50<10 ng/mL) | A (IC50<10 ng/mL) | A (IC50<10 ng/mL) | efficacious in suppressing tumor growth | A (IC50<10 ng/mL) | A (IC50<1 ng/mL) | active with a majority of animals in a complete regression | D (IC50≥1000 ng/mL) | 1 to 150 | B (1 ng/mL≤IC50<10 ng/mL) | C (100 ng/mL≤IC50<1000 ng/mL) | – | –
2 | COc1cccc2c1C(=O)c1c(O)c3c(c(O)c1C2=O)C[C@@](O)(C(=O)NCCNC(=O)CNC(=O)CNC(=O)CNC(=O)CCN1C(=O)C=CC1=O)C[C@@H]3O[C@H]1C[C@H]2[C@H](O[C@@H]3[C@@H](OC)OCCN32)[C@H](C)O1 [Compound 18, (2S,4S)—N-(15-(2,5-dioxo-2,5-dihydro-1H-pyrrol-1-yl)-4,7,10,13-tetraoxo-3,6,9,12-tetraazapentadecyl)-2,5,12-trihydroxy-7-methoxy-4-(((1S,3R,4aS,9S,9aR,10aS)-9-methoxy-1-methyloctahydro-1H-pyrano[4′,3′:4,5]oxazolo[2,3-c][1,4]oxazin-3-yl)oxy)-6,11-dioxo-1,2,3,4,6,11-hexahydrotetracene-2-carboxamide] | D (100 ng/mL≤IC50<500 ng/mL) | D (100 ng/mL≤IC50<500 ng/mL) | B (1 ng/mL≤IC50<10 ng/mL) | A (IC50<10 ng/mL) | A (IC50<10 ng/mL) | efficacious in suppressing tumor growth | A (IC50<10 ng/mL) | A (IC50<1 ng/mL) | active with a majority of animals in a complete regression | D (IC50≥1000 ng/mL) | 1 to 150 | A (IC50<1 ng/mL) | B (10 ng/mL≤IC50<100 ng/mL) | – | –
3 | COc1cccc2c1C(=O)c1c(O)c3c(c(O)c1C2=O)C[C@@](O)(C(=O)NCCNC(=O)CNC(=O)CNC(=O)CNC(=O)CCN1C(=O)C=CC1=O)C[C@@H]3O[C@H]1C[C@H](N2CCO[C@H](OC)C2)[C@H](O)[C@H](C)O1 [Compound 33, (2S,4S)—N-(15-(2,5-dioxo-2,5-dihydro-1H-pyrrol-1-yl)-4,7,10,13-tetraoxo-3,6,9,12-tetraazapentadecyl)-2,5,12-trihydroxy-4-(((2R,4S,5S,6S)-5-hydroxy-4-((S)-2-methoxymorpholino)-6-methyltetrahydro-2H-pyran-2-yl)oxy)-7-methoxy-6,11-dioxo-1,2,3,4,6,11-hexahydrotetracene-2-carboxamide] | – | – | – | D (IC50≥1000 ng/mL) | D (IC50≥1000 ng/mL) | – | D (IC50≥1000 ng/mL) | – | – | D (IC50≥1000 ng/mL) | – | – | D (IC50≥1000 ng/mL) | > 20,000 ng/ml | inactive
4 | COc1cccc2c1C(=O)c1c(O)c3c(c(O)c1C2=O)C[C@@](O)(C(=O)NCCNC(=O)CNC(=O)CNC(=O)CNC(=O)OCc1ccc(NC(=O)[C@H](C)NC(=O)[C@@H](NC(=O)CCN2C(=O)C=CC2=O)C(C)C)cc1)C[C@@H]3O[C@H]1C[C@H]2[C@H](O[C@@H]3[C@@H](OC)OCCN32)[C@H](C)O1 [Compound 29, 4-((S)-2-((S)-2-(3-(2,5-dioxo-2,5-dihydro-1H-pyrrol-1-yl)propanamido)-3-methylbutanamido)propanamido)benzyl (1,6,9,12-tetraoxo-1-((2S,4S)-2,5,12-trihydroxy-7-methoxy-4-(((1S,3R,4aS,9S,9aR,10aS)-9-methoxy-1-methyloctahydro-1H-pyrano[4′,3′:4,5]oxazolo[2,3-c][1,4]oxazin-3-yl)oxy)-6,11-dioxo-1,2,3,4,6,11-hexahydrotetracen-2-yl)-2,5,8,11-tetraazatridecan-13-yl)carbamate] | E (IC50≥500 ng/mL) | E (IC50≥500 ng/mL) | B (1 ng/mL≤IC50<10 ng/mL) | A (IC50<10 ng/mL) | A (IC50<10 ng/mL) | non-efficacious | B (10 ng/mL≤IC50<100 ng/mL) | A (IC50<1 ng/mL) | active with a majority of animals in a complete regression | D (IC50≥1000 ng/mL) | 1 to 150 | A (IC50<1 ng/mL) | B (10 ng/mL≤IC50<100 ng/mL) | – | –

From patent US20240261422A1, “ANTHRACYCLINE ANTIBODY CONJUGATES” (SEAGEN INC., priority 2021, published 2024)
